Measured values from patent publication US7608601B2, “4′-Substituted nucleoside derivatives as inhibitors of HCV RNA replication” (Roche Palo Alto LLC, priority 2001, dated 2009).

Legend:
HCV replicon RNA = assay: Renilla luciferase HCV replicon assay; assay type: cell-based, Hepatitis C Virus; details: Huh7 2209-23 cells, three days
[1] = test system: Renilla Luciferase HCV replicon cells (2209-23); assay: WST-1 cytotoxicity assay; assay type: cell-based, human; details: 2209-23 cells, three days
Protocol: For the assay procedure, Renilla Luciferase HCV replicon cells (2209-23) that cultured in Dulbecco's MEM (GibcoBRL cat no. 31966-021) with 5% fetal calf serum (FCS, GibcoBRL cat. no. 10106-169) were plated onto a 96-well plate at 5000 cells per well, and incubated overnight. Twenty-four hours later, different dilutions of chemical compounds in the growth medium were added to the cells, which were then further incubated at 37° C. for three days. The assay was carried out in duplicate plates, one in opaque white and one in transparent, in order to measure the activity and cytotoxicity of a chemical compound in parallel ensuring the activity seen is not due to reduction on cell proliferation.
For the cytotoxicity assay, WST-1 reagent from Roche Diagnostic (cat no. 1644807) was used. Ten microlitre of WST-1 reagent was added to each well including wells that contain media alone as blanks. Cells were then incubated for 1 to 1.5 hours at 37° C., and the OD value was measured by a 96-well plate reader at 450 nm (reference filter at 650 nm). Again CC50, the concentration of the drug required for reducing cell proliferation by 50% in relation to the untreated cell control value, can be calculated from the plot of percentage reduction of the WST-1 value vs. drug concentration.

Row | Compound | IC50 (HCV replicon RNA; Hepatitis C virus, Huh-7, 72 h, concentration reducing replicon level by 50% vs untreated control) | CC50(μM) WST-1, given as % at a concentration ([1]; at 100 μM) | IC50 (μM), given as % at a concentration (HCV replicon RNA; at 20 μM) | CC50(μM) WST-1, given as % at a concentration ([1]; at 20 μM)
1 | [N-]=[N+]=N[C@]1(CO)O[C@@H](n2ccc(N)nc2=O)[C@H](O)[C@@H]1O [compound 1, 4′-C-Azidocytidine] | 1200 nM | 0% (100 μM) |  | 
2 | C#C[C@]1(CO)O[C@@H](n2ccc(N)nc2=O)[C@H](O)[C@@H]1O.Cl [compound 3, 4′-C-Ethynylcytidine hydrochloride (1:1)] |  |  | 3% (20 μM) | 0% (20 μM)
